US4853221A, “Method for treating non-small cell lung cancer, head and neck cancers and breast cancer” (Warner-Lambert Company, priority 1987, dated 1989)

What was measured:
L1210 cells = assay: Inhibition of L1210 cell growth in vitro; type: cell-based, murine
Description: (§1) Two leukemia cell lines (L1210 and L5178Y) and two solid tumor cell lines (Sarcoma 180 and Walker 256) were used in these studies.
(§2) Logarithmically growing L1210 cells (approximately 3×10^5 cells/ml) were diluted with Fischer's medium (containing 10% horse serum) to an approximate concentration of 5×10^4 cells/ml. Cells were planted in duplicate into 15 ml culture tubes containing either no drug or various amounts of drug, and incubated for 48 hours at 37° C. before being counted.
*ED50 = the concentration of drug required to reduce the cell count
to 50%, determined by plotting the cell count versus drug concentration.

Walker-256 = assay: Inhibition of Walker-256 cell growth in vitro; type: cell-based; conditions: Mus musculus, 48 h; Murine Walker-256; read-out: ED50 (the source's name)
Description: as §1, §2
(§3) Trimetrexate was also evaluated in a similar manner side-by-side with methotrexate for its effect on the growth of three additional murine cell lines (L5178Y, Sarcoma-180, and Walkler-256) and three human cell lines (acute myelogenous leukemia K-562, T-cell 8402, and B-cell 8392), propagated in vitro.

T-Cell 8402 = assay: Inhibition of T-Cell 8402 growth in vitro; type: cell-based, human; conditions: 48 h; Human T-Cell 8402; read-out: ED50 (the source's name)
Description: as §2, §3

[1] = test system: murine tumor cell lines (L5178Y, Sarcoma-180, Walker-256); assay: Comparison with methotrexate against murine tumor cell lines in vitro; type: cell-based; conditions: all of the murine tumor cell lines tested
Description: as §1, §2, §3

[2] = test system: human cell lines (K-562, T-cell 8402, B-cell 8392); assay: Comparison with methotrexate against human cell lines in vitro; type: cell-based
Description: as §2, §3

Miscell. tumors = assay: Human tumor cloning system, miscellaneous tumors; type: cell-based; conditions: one hour, 10 specimens
From the text: The activity of trimetrexate was compared with that of methotrexate in tests with a human tumor cloning system (Latham, et al., Proc. Am. Assoc. Cancer Res., 24: 278 (1983)). The data from these tests appear in Table III were the activities are expressed as the numbers of tumors with 50% or greater reduction in tumor colony forming units after one hour exposure to the drug.

Colon 38 = assay: Antitumor activity against colon adenocarcinoma 38 in mice; type: in vivo, mouse
[3] = test system: Early Stage P388 Leukemia; assay: Combination chemotherapy, therapeutic synergy against early stage P388 leukemia; type: in vivo, mouse; conditions: Test 1
Description: Several studies were carried out to determine the potential for therapeutic synergy of trimetrexate with several clinically active anticancer agents. […] (See, for example, Vendetti, "Relevance of Transplantable Animal-Tumor Systems to the Selection of New Agents for Clinical Trial," Pharmacological Basis of Cancer Chemotherapy. Williams and Wilkins, Baltimore, 1975, and Simpson Herren, et al., "Evaluation of In Vivo Tumor Models for Predicting Clinical Activity for Anticancer Drugs," Proc. Am. Assoc. Cancer Res., 26: 330 (1985).
Differences in cell kill of greater than ten-fold (one log) were considered indicative of therapeutic synergy.
CD2F1 mice were quarantined for at least two weeks prior to allocation to test groups. P388 leukemia was passaged in DBA2 mice according to standard protocols of the National Cancer Institute. On Day 0 of a given test, all mice in the test were randomized, injected intraperitoneally with suitably diluted ascites fluid from P388 tumor-bearing donor mice and rerandomized to test cages.
The initial inoculum for all but titration groups was 10^6 cells as determined by hemocytometer count. Each experiment contained an internal control and tumor titration which enabled the determination of the tumor doubling time and estimates of the log cell kill and number of tumor cells surviving treatment.
Drug treatment was begun either on Day 1 or on Day 4 depending upon the relative activity of the agents being tested.
All of the drugs were injected within one hour of dissolution, with the exception of trimetrexate which was made up fresh twice daily. All mice were treated on the basis of average cage-group weight.
In drug combination regimens, trimetrexate was given approximately 30 minutes before the other therapeutic agents when the route of administration of the other agent was ip. […]
Group average weights were determined for all groups on Days 1, 5, and 9 for "early stage" P388 tests and on Days 4, 8, and 12 for "advanced stage" P388 tests. Animals were monitored for life span. […]

[4] = test system: non-small cell lung cancer; assay: Phase I clinical trials, non-small cell lung cancer; type: in vivo, human; conditions: single agent
Description: (§4) Several Phase I clinical trials employing trimetrexate in human patients were carried out. In one study, 36 patients were treated with trimetrexate as a single agent at daily doses of 0.5 mg/m^2 /day to 12 mg/m^2 /day administered intravenously for five days.
(§5) In additional Phase I clinical studies, patients were administered trimetrexate with single intravenous doses ranging between 5 and 450 mg/m^2 and with weekly doses of slightly greater than 100 mg/m^2.

cancer of the pancreas = assay: Phase I clinical trials, cancer of the pancreas; type: in vivo, human; conditions: single agent
Description: as §4, §5

salivary gland cancer = assay: Phase I clinical trials, salivary gland cancer; type: in vivo, human; conditions: single agent
Description: as §4, §5

[5] = test system: non-small cell lung cancer; assay: Phase II trial, non-small cell lung cancer; type: in vivo, human
Description: The efficacy and safety of trimetrexate in the treatment of patients with non-small cell lung cancer was evaluated in a 16-center Phase II study.
Initially, all patients received a single 8 mg/m^2 dose of trimetrexate daily for five days of a 21-day treatment course. The dose was administered at three- or four-week intervals, with the number of treatment courses dependent upon the patient's response.
Objective response was determined by a decrease from baseline in tumor size as set forth by the World Health Organization (WHO) response criteria. Duration of response was measured from the date of first treatment to the first date when progressive disease was documented.
Responses were classified as complete or partial. A complete response was defined as no evidence of disease and a partial response as a 50% or greater decrease in overall tumor size without evidence of progression in 28 days.

Oral bioavailability = conditions: in vivo, administered orally
[6] = test system: transplanted rodent tumors which are resistant to methotrexate; assay: Activity against methotrexate-resistant transplanted rodent tumors; conditions: in vivo

For `COc1cc(NCc2ccc3nc(N)nc(N)c3c2C)cc(OC)c1OC` [Trimetrexate, 5-methyl-6-[[(3,4,5-trimethoxyphenyl)amino]methyl]-2,4-quinazolinediamine], the “inhibition of L1210 cell growth” value (L1210 cells) was “potent inhibitor of L1210 cell growth”, the IC50 (L1210 cells; Mus musculus, L1210, concentration required to reduce the cell count to 50%, 48 hours at 37° C, read-out: ED50 for L1210 Cells) was 7 nM and the IC50 (Walker-256) was 5 nM. The IC50 (T-Cell 8402) was 10 nM, the “potency relative to methotrexate” value [1] was “more potent than methotrexate” and the “effectiveness relative to methotrexate” value [2] was “more effective in inhibiting cell growth in vitro than was methotrexate”. For the same compound, the “Number of Tumors with 50% or Greater Decrease in Tumor Colony Forming Units” value (Miscell. tumors; trimetrexate 0.1 μg/ml) was 2, the “Number of Tumors with 50% or Greater Decrease in Tumor Colony Forming Units” value (Miscell. tumors; trimetrexate 1.0 μg/ml) was 1 and the “antitumor activity” value (Colon 38; mouse, in vivo) was “good activity”. The “Tumor Weight Inhibition % TWI” value (Colon 38; optimal dose 60 mg/kg (dose range 60-1.88), Sc every 7 days, Days 2-9) was 85%, the “single agent activity” value [3] was “the more active of the two single agents” and the “patients with favorable responses” value [4] was “two”. The “patients with favorable responses” value (cancer of the pancreas) was “one”, the “patients with favorable responses” value (salivary gland cancer) was “two” and the “patients with stable disease” value ([5]; 23 patients) was 39%. The “median time to progressive disease” value ([5]; 23 patients with stable disease) was 15.7 weeks, the “patients who only experienced progressive disease” value ([5]; 25 patients) was 42% and the “median time to progression” value ([5]; 25 patients who only experienced progressive disease) was 3.4 weeks. For the same compound, the “median time to progressive disease” value ([5]; 55 of the 59 evaluable patients, range 1.9-75.0) was 7.9 weeks, the “patients with partial response” value ([5]; 59 evaluable patients, initial 8 mg/m^2 daily for five days of a 21-day course) was “Eleven” and the “response rate (partial response)” value ([5]; 95% confidence interval 9%-29%, 59 evaluable patients) was 19%. The “additional patients with 50% regression only by liver measurements” value ([5]; in vivo) was “One”, the “overall median survival time” value ([5]; in vivo) was 26.4 weeks and the “patients who only experienced progressive disease (number)” value ([5]; in vivo) was 25 patients. For the same compound, the “patients with stable disease (number)” value ([5]; in vivo) was 23 patients, the “patients without progressive disease at end of reporting period” value ([5]; in vivo) was “Four” and the “median time to progressive disease” value ([5]; patients who responded, range 11.1-47.0) was 24.9 weeks. The “median duration of partial response” value ([5]; range 5.6-40.7) was 15.3 weeks, the bioavailability (Oral bioavailability) was ~80% and the “activity against methotrexate-resistant transplanted rodent tumors” value [6] was “activity against a variety of transplanted rodent tumors”.
